In paper PMC11189555, “Aryl amino acetamides prevent Plasmodium falciparum ring development via targeting the lipid-transfer protein PfSTART1” (Nature Communications, 2024):

Test system: PopD C6 M-833 resistant clone (PfSTART1 N309K)
Experiment: Growth inhibition assay (72 h, LDH activity)
Assay type: cell-based, Plasmodium falciparum
Description: The drug was then removed, and parasites were allowed to recover. Another cycle of drug treatment (3 μM M-833) was then resumed. The resistant lines were cloned out by limiting dilution (diluting the culture into a 96-well plate to achieve an average of ~0.3 parasites per well), prior to growth inhibition assays and genomic DNA (gDNA) extraction (DNeasy Blood and Tissue kit (Qiagen)[18].
Parasite growth assays with inhibitory compounds were performed as per[11] and are fully described in the Supplementary Information.
Molecular biology and transfection of P. falciparum: CRISPR method.
The full 5’ homology region of pfstart1 (either WT, N309K or N330K) was amplified from pPfSTART1-HA-2A-Neo-glmS with the same 5’ BglII primer and a new 3’ primer that replaced with PstI with SpeI and introduced a stop codon. The PCR product was then digested with BglII and SpeI and inserted into similarly digested p1.2 parasite vector2. The p1.2 vector had previously been inserted with a homology region amplified from the 3’ end of the pfstart1 gene (3’HB) to form a second homology block for double recombination. The primers used to amplify 3’HB are listed primers listed in […]
60 μg of p1.2-PfSTART1(WT/N309K/N330K) plasmid was linearised with KasI, precipitated in 3 M sodium acetate and ethanol (70% final concentration) overnight at -20°C. The DNA pellet was washed in cold 70% ethanol and resuspended in cytomix 3.
50 μ M of crRNA ( Table S 2) and 50 μM of tracRNA (Integrated DNA Technologies) were allowed to form a duplex (5 min at 95°C), and Cas9 enzyme (Integrated DNA Technologies) was added, and incubated for 20 min at room temperature 4. This crRNA -tracRNA -Cas9 mix was added to each DNA preparation and transfected to 3D7 ring parasites using the Bio -Rad Gene Pulser at 310 V and 950 μF.
Parasites containing the transfected DNA were selected using 2.5 nM WR99210 (Jacobus). Parasites lines were cloned using limiting dilution. Correct integration was tested by PCR (using primer START_5’UTR.F and START_Int.R1 , Table S 2), and sequencing was done using the primers START_3F and START_Int.R2 (Table S 2).
Growth inhibition assays. Synchronised ring-stage parasites (0.3-0.6% parasitemia, 2% haematocrit) were grown for 72 h in a serial-dilution of the compound under […]
and compound 4. Note that M-833 was first purchased from MolPort (MolPort -002-267-916) then made in-house at WEHI: the differences observed in EC50s across experiments are attributed to the different batches of M -833. For some experiments, 0, 0.25 or 2.5 mM of glucosamine (GlcN) was also added. Experiments were set up in technical duplicates or triplicates. Following a freeze -thaw cycle, lactate dehydrogenase (LDH) activity was assessed as an indicator of parasite growt h 5. 30 μL of parasite culture was incubated for 30 min in the dark with 75 μL Malstat mixture (0.1 M Tris pH 9.0, 20 g/L lactic acid, pH 7.5, 0.2% Triton-X100, 0.5 g/L acetylpyridine adenine dinucleotide (APAD, Sigma), 200 μg/mL nitroblue tetrazolium (NBT; Sigma), 1 μg/mL phenozine ethosulfate (PES; Sigma)). Absorbance was then measured at 650 nm, transformed using the formula below, plotted against the logarithm of the concentrations, and a non-linear regression (log(inhibitor) vs. response, variable slope) was calculated using GraphPad Prism to assess the half-inhibitory […]
Growth inhibition % = (1 − average(sample)− average(uRBC)) ∗ 100 […]
The DMSO samples were also used to assess growth of parasite in the presence of 0.25 and 2.5 mM GlcN (normalised by DMSO in 0 mM GlcN).
Egress, invasion & recovery assay. To measure egress, invasion and follow up recovery in the presence of different compounds, we adapted the method developed in6, using Hyp1-Nluc parasites7. These parasites episomally express the exported PEXEL protein Hyp1 (PF3D7_0113300) tagged with a NanoLuc luciferase (NLuc) and were selected with 2.5 nM WR99210 (Jacobus). Highly synchronised schizonts were […]

## Cc1cc(Cl)c(S(=O)(=O)N2CCCC2)cc1OCC(=O)NC1CCCCC1 [M-833]
M-833 0.0390625 uM, Pop D-C6 replicate 1
  Normalised to DMSO: 106.597
M-833 0.0390625 uM, Pop D-C6 replicate 3
  Normalised to DMSO: 109.19
M-833 0.078125 uM, Pop D-C6 replicate 1
  Normalised to DMSO: 104.398
M-833 0.078125 uM, Pop D-C6 replicate 3
  Normalised to DMSO: 106.818
M-833 0.15625 uM, Pop D-C6 replicate 1
  Normalised to DMSO: 106.528
M-833 0.15625 uM, Pop D-C6 replicate 3
  Normalised to DMSO: 112.747
M-833 0.3125 uM, Pop D-C6 replicate 1
  Normalised to DMSO: 101.389
M-833 0.3125 uM, Pop D-C6 replicate 3
  Normalised to DMSO: 96.5909
M-833 0.625 uM, Pop D-C6 replicate 1
  Normalised to DMSO: 99.6991
M-833 0.625 uM, Pop D-C6 replicate 3
  Normalised to DMSO: 97.6285
M-833 1.25 uM, Pop D-C6 replicate 1
  Normalised to DMSO: 88.1713
M-833 1.25 uM, Pop D-C6 replicate 3
  Normalised to DMSO: 89.9209
M-833 2.5 uM, Pop D-C6 replicate 1
  Normalised to DMSO: 68.7963
M-833 2.5 uM, Pop D-C6 replicate 3
  Normalised to DMSO: 69.4664
M-833 5 uM, Pop D-C6 replicate 1
  Normalised to DMSO: 41.5972
M-833 5 uM, Pop D-C6 replicate 3
  Normalised to DMSO: 40.2668
M-833 10 uM, Pop D-C6 replicate 1
  Normalised to DMSO: 22.7778
M-833 10 uM, Pop D-C6 replicate 3
  Normalised to DMSO: 32.2628
Plasmodium falciparum, M-833 0.0390625 uM, Pop D-C6 replicate 1
  inhibition at 0.0390625 µM: -6.6%
Plasmodium falciparum, M-833 0.0390625 uM, Pop D-C6 replicate 3
  inhibition at 0.0390625 µM: -9.19%
Plasmodium falciparum, M-833 0.078125 uM, Pop D-C6 replicate 1
  inhibition at 0.078125 µM: -4.4%
Plasmodium falciparum, M-833 0.078125 uM, Pop D-C6 replicate 3
  inhibition at 0.078125 µM: -6.82%
Plasmodium falciparum, M-833 0.15625 uM, Pop D-C6 replicate 1
  inhibition at 0.15625 µM: -6.53%
Plasmodium falciparum, M-833 0.15625 uM, Pop D-C6 replicate 3
  inhibition at 0.15625 µM: -12.7%
Plasmodium falciparum, M-833 0.3125 uM, Pop D-C6 replicate 1
  inhibition at 0.3125 µM: -1.39%
Plasmodium falciparum, M-833 0.3125 uM, Pop D-C6 replicate 3
  inhibition at 0.3125 µM: 3.41%
Plasmodium falciparum, M-833 0.625 uM, Pop D-C6 replicate 1
  inhibition at 0.625 µM: 0.301%
Plasmodium falciparum, M-833 0.625 uM, Pop D-C6 replicate 3
  inhibition at 0.625 µM: 2.37%
Plasmodium falciparum, M-833 1.25 uM, Pop D-C6 replicate 1
  inhibition at 1.25 µM: 11.8%
Plasmodium falciparum, M-833 1.25 uM, Pop D-C6 replicate 3
  inhibition at 1.25 µM: 10.1%
Plasmodium falciparum, M-833 2.5 uM, Pop D-C6 replicate 1
  inhibition at 2.5 µM: 31.2%
Plasmodium falciparum, M-833 2.5 uM, Pop D-C6 replicate 3
  inhibition at 2.5 µM: 30.5%
Plasmodium falciparum, M-833 5 uM, Pop D-C6 replicate 1
  inhibition at 5 µM: 58.4%
Plasmodium falciparum, M-833 5 uM, Pop D-C6 replicate 3
  inhibition at 5 µM: 59.7%
Plasmodium falciparum, M-833 10 uM, Pop D-C6 replicate 1
  inhibition at 10 µM: 77.2%
Plasmodium falciparum, M-833 10 uM, Pop D-C6 replicate 3
  inhibition at 10 µM: 67.7%
Plasmodium falciparum, Pop D-C6 replicate 1, M-833 0.0390625 uM
  inhibition at 0.0390625 µM: -0.105%
Plasmodium falciparum, Pop D-C6 replicate 1, M-833 0.078125 uM
  inhibition at 0.078125 µM: -0.157%
Plasmodium falciparum, Pop D-C6 replicate 1, M-833 0.15625 uM
  inhibition at 0.15625 µM: 1.36%
Plasmodium falciparum, Pop D-C6 replicate 1, M-833 0.3125 uM
  inhibition at 0.3125 µM: 4.07%
Plasmodium falciparum, Pop D-C6 replicate 1, M-833 0.625 uM
  inhibition at 0.625 µM: 7.36%
Plasmodium falciparum, Pop D-C6 replicate 1, M-833 1.25 uM
  inhibition at 1.25 µM: 9.35%
Plasmodium falciparum, Pop D-C6 replicate 1, M-833 2.5 uM
  inhibition at 2.5 µM: 19.4%
Plasmodium falciparum, Pop D-C6 replicate 1, M-833 5 uM
  inhibition at 5 µM: 34.9%
Plasmodium falciparum, Pop D-C6 replicate 1, M-833 10 uM
  inhibition at 10 µM: 62%
Plasmodium falciparum, read-out: EC50 (95% confidence interval)
  EC50: 4.19 µM
Pop D-C6 replicate 1, M-833 0.0390625 uM
  Normalised to DMSO: 100.105
Pop D-C6 replicate 1, M-833 0.078125 uM
  Normalised to DMSO: 100.157
Pop D-C6 replicate 1, M-833 0.15625 uM
  Normalised to DMSO: 98.6386
Pop D-C6 replicate 1, M-833 0.3125 uM
  Normalised to DMSO: 95.9333
Pop D-C6 replicate 1, M-833 0.625 uM
  Normalised to DMSO: 92.6433
Pop D-C6 replicate 1, M-833 1.25 uM
  Normalised to DMSO: 90.6536
Pop D-C6 replicate 1, M-833 2.5 uM
  Normalised to DMSO: 80.5829
Pop D-C6 replicate 1, M-833 5 uM
  Normalised to DMSO: 65.0842
Pop D-C6 replicate 1, M-833 10 uM
  Normalised to DMSO: 37.9963
